# In US20130116286A1, “DROXIDOPA AND PHARMACEUTICAL COMPOSITION THEREOF FOR THE TREATMENT OF NEURALLY MEDIATED HYPOTENSION” (Chelsea Therapeutics, Inc., priority 2007, published 2013):
# Key:
# plasma norepinephrine = experiment: Plasma norepinephrine concentration after dosing with droxidopa or droxidopa combinations in rats; assay type: in vivo, male Sprague Dawley rats; details: versus vehicle alone, 2 hours post-dosing, rat
# Description: The pharmacokinetic properties of droxidopa combinations useful in the methods of the invention were evaluated in male Sprague Dawley rats.
# Administration of droxidopa combinations was seen to affect plasma norepinephrine concentration in comparison to administration of droxidopa alone. Formulation 0 indicates administration of the vehicle alone without droxidopa or a droxidopa combination of the invention and provides a baseline comparative of plasma norepinephrine levels in an untreated subject.
# MAO-A than MAO-B = details: cited from earlier work
SMILES,increase in plasma norepinephrine concentration (plasma norepinephrine) [fold],selectivity for MAO-A than MAO-B (MAO-A than MAO-B)
"NC(C(=O)O)C(O)c1ccc(O)c(O)c1 (stereo not drawn) [droxidopa, threo-3-(3,4-dihydroxyphenyl)serine]",~5,
O=C(NCCN1CCOCC1)c1ccc(Cl)cc1 [moclobemide],,approximately three times more selective for MAO-A than MAO-B
